Experiment [1] deals with Pseudomonas aeruginosa (ATCC10145). The experiment can be described thus: Bactericidal activity of laccase/enhancer systems, Malthus conductance enumeration of surviving cells. In kind it is cell-based. To be noted: for Bactericidal activity (log(cfu/ml)=the logarithm to the number of killed cells): enhancer 0.1 mM with rPpL or rMtL 3 mg/L, 20 min, approx. 10^4 cfu/ml. Here is the method:
(§1) Bactericidal activity was evaluated in 0.05 M MES-buffer (2-[N-morpholino]ethanesulfonic acid) (pH 6), which were flushed with air for 5 min before filter sterilisation. The bactericidal activity was determined against Pseudomonas aeruginosa (ATCC10145) and Staphylococcus epidermidis (DSM20042). Cells were grown in Tryptone Soya Broth (Oxoid CM129) at 30° C. for 24 h and diluted in the MES-buffer to a final cell concentration of approximately 10^4 cfu/ml. The cell suspensions were mixed with laccase (3 mg/L) and enhancer (0.1 mM) for 20 min at 40° C. The bactericidal activity was determined by incubation in Malthus. Detection times measured by the Malthus instrument were converted to cfu/ml by a calibration curve. Either direct or indirect Malthus measurements were used when enumerating total survival cells (Malthus Flexi M2060, Malthus Instrument Limited). By the direct measurements, the cell metabolism was determined by conductance measurements in the growth substrate. By the indirect measurements, 3 ml of growth medium was transferred to the outer chamber of the indirect Malthus cells, and 0.5 ml of sterile KOH (0.1 M) was transferred to the inner chamber. The cell suspensions were after enzyme treatment transferred to the outer chamber of the Malthus cell. As cells are growing in the outer chamber they produce CO2 which will dissolve in the KOH in the inner chamber and thereby change the conductance of the KOH. The amount of CO2 formed by the respiring cells surviving the enzyme treatment was used for estimating the number of viable cells. When the conductance change is measurable by the Malthus, a detection time (dt) will be recorded. The dt-s were converted to colony counts by use of a calibration curve relating cfu/ml to dt (Johansen et al. 1995. Journal of Applied Bacteriology 78:297-303, Johansen et al. 1997, Applied and Environmental Microbiology 63:3724-3728).
Antimicrobial activity (i.e. bactericidal activity) of Myceliophthera laccase (rMtL) and methylsyringate (MeS) was determined using a 32 factorial design at pH 6 at 40° C. in MES-buffer as described in example 1, however, a higher cell concentration was used (10^7-10^8 cfu/ml). Tested rMtL levels was 0-2,5-5 mg/L and MeS levels was 0-5-10 mM.
Antimicrobial activity (i.e. bactericidal activity) of Myceliophthera laccase (rMtL) and Polyporus laccase (rPpL) was determined against Staphylococcus epidermidis at pH 6 in MES-buffer as described in example 1, the laccases was used in the concentration of 3 mg/L. Acetosyringon, methylsyringate, ethylsyringate, butylsyringate and laurylsyringate were evaluated as electron-donors in the concentration of 0.2 mM.
Antimicrobial activity of laccases with two enhancers was determined against Pseudomonas aeruginosa (ATCC 10145) and Staphylococcus epidermidis (DSM 20042) at pH 6 as described in example 1. Methylsyringate and acetosyringon was used as enhancers and the laccase was rPpL (1 mg/L) and the antimicrobial activity was determined by use of a 32 factorial experimental design.

The test system of experiment [2] is Staphylococcus epidermidis (DSM20042). Described as above. The experiment is classed as cell-based. To be noted: for Bactericidal activity (log(cfu/ml)=the logarithm to the number of killed cells): enhancer 0.1 mM with rPpL or rMtL 3 mg/L, 20 min, approx. 10^4 cfu/ml; for Bactericidal activity (log(cfu/ml)=the logarithm to the number of killed cells) / bactericidal activity when combined with laccase / bactericidal activity without laccase / bactericidal activity when combined with Polyporus laccase: pH 6, 40° C.; for bactericidal activity when combined with laccase: laccase (rMtL or rPpL) 3 mg/L; for bactericidal activity when combined with laccase / bactericidal activity without laccase / bactericidal activity when combined with Polyporus laccase: 20 minutes; for bactericidal activity without laccase: no laccase; for bactericidal activity when combined with Polyporus laccase: rPpL 3 mg/L. Here is the method: as §1, with “63:3724-3728). […]” for “63:3724-3728).”

`O=C(O)CCN1c2ccccc2Sc2ccccc21` [PPT, reference compound]: the “Bactericidal activity (log(cfu/ml)=the logarithm to the number of killed cells)” value was “None of the other enhancers resulted in bactericidal activity” in experiment [1] (pH 6, 40° C.) and “None of the other enhancers resulted in bactericidal activity” in experiment [2].

As for `COc1cc(C(C)=O)cc(OC)c1O` [acetosyringon], the “bactericidal activity, comparison of the syringate-compounds as enhancers” value in experiment [1] (different syringate-compounds with laccase) was “most bactericidal enhancer”. Also, the cell reduction entry in experiment [1] (with rPpL (1 mg/L), pH 6, 40° C.) was “approximately 1.5 log units”. In experiment [2] (enhancer 0.2 mM), the “bactericidal activity when combined with laccase” value is reported as “significantly increased”, the “bactericidal activity without laccase” value is given as “did also show bactericidal activity” and the “bactericidal activity when combined with Polyporus laccase” value was 100%. Further, the “bactericidal activity with Myceliophthera laccase” value in experiment [2] (enhancer 0.2 mM, rMtL 3 mg/L, pH 6, compared to Polyporus laccase and to the other syringate compounds) is given as “decreased”.

As to `CCCCOC(=O)c1cc(OC)c(O)c(OC)c1` [butylsyringate], in experiment [2] (enhancer 0.2 mM), the “bactericidal activity when combined with Polyporus laccase” value turned out to be 100%.

As for `O=C(/C=C/c1ccc(O)c(O)c1)O[C@@H]1C[C@](O)(C(=O)O)C[C@@H](O)[C@H]1O` [chlorogenic acid, reference compound], the “Bactericidal activity (log(cfu/ml)=the logarithm to the number of killed cells)” value in experiment [1] (pH 6, 40° C.) was “None of the other enhancers resulted in bactericidal activity”; in experiment [2], “None of the other enhancers resulted in bactericidal activity”.

On to `O=C(O)C=Cc1ccccc1` [cinnamic acid, reference compound], for which the “Bactericidal activity (log(cfu/ml)=the logarithm to the number of killed cells)” value is “None of the other enhancers resulted in bactericidal activity” in experiment [1] (pH 6, 40° C.) and “None of the other enhancers resulted in bactericidal activity” in experiment [2].

With `CCOC(=O)c1cc(OC)c(O)c(OC)c1` [ethylsyringate], the “bactericidal activity when combined with Polyporus laccase” value in experiment [2] (enhancer 0.2 mM) stood at 100%.

In the case of `CCCCCCCCCCCCOC(=O)c1cc(OC)c(O)c(OC)c1` [laurylsyringate], in experiment [2] (enhancer 0.2 mM), the “bactericidal activity when combined with laccase” value was “significantly increased” and the “bactericidal activity without laccase” value is listed as “did also show bactericidal activity”.

For the compound `COc1cc(C=O)cc(OC)c1O` [syringaldehyde], the “Bactericidal activity (log(cfu/ml)=the logarithm to the number of killed cells)” value is “None of the other enhancers resulted in bactericidal activity” in experiment [1] (pH 6, 40° C.) and “None of the other enhancers resulted in bactericidal activity” in experiment [2].

The record behind these values is patent publication US20010025018A1, “Antimicrobial activity of laccases” (priority 1997, published 2001).
